Test results as given in a melting point compilation (Tetko et al.; mined from patent text by program, amines drawn as free bases though some values may be those of a salt).

Row | Compound | melting point [°C]
1 | CCc1cn(C2CC(O)C(CNC(=O)C(C)S(=O)c3ccc(Cl)cc3Cl)O2)c(=O)[nH]c1=O (mixture of isomers) | 208 to 209
2 | O=C(O)CCC(=O)c1ccc(OC2CCCCC2)cc1 | 190 to 192
3 | CCOC(=O)/C=C/c1ccc(OCOC)cc1Oc1ccc(C(F)(F)F)cn1 | 69 to 70
4 | COc1ccc(CCCC2(Br)C(=O)NC(=O)NC2=O)cc1 | 113 to 114
5 | COCCNc1c([N+](=O)[O-])cnn1-c1c(Cl)cc(C(F)(F)F)cc1Cl | 85 to 90
6 | NC(=O)C[C@H](NS(=O)(=O)c1ccc2c(c1)Sc1ccccc1O2)C(=O)O | 165 to 175
7 | CC(C)(C)OC(=O)CNC1(c2ccccc2Cl)C(=O)Nc2ccc(Cl)cc21 (stereo not given) | 217
8 | COCCOc1ccc(CC(C)C(=O)O)c(Oc2ncc(C(F)(F)F)cc2Cl)c1 (stereo not given) | 130 to 131
9 | Clc1cccc2c1nnn2C1CCCCC1 | 141 to 144
10 | CCn1nc(C)c(CN(C(=O)C2CCCc3ccccc32)c2ccc(C(C)C)cc2)c1C (stereo not given) | 142 to 143
11 | CCOP(=O)(Cc1cccc2cccc(CP(=O)(OCC)OCC)c12)OCC | 55 to 56
12 | CCC1CC2C3CC=C4CC(OC(C)=O)CCC4(C)C3CCC2(C)C1C(C)=O (stereo not given) | 115
13 | COCCOn1nnc2ccc(Cn3ccnc3)cc21 | 77
14 | Cc1[nH]c(=O)c(C(N)=O)cc1-c1ccc2nccn2c1 | > 300
15 | CC1=C(C(=O)Nc2ccccc2)OCCO1 | 85 to 87
16 | CCCn1c(=O)c2c(ncn2CC(O)CO)n(CCC)c1=O (stereo not given) | 88 to 91
17 | COC(=O)CC1Oc2ccccc2Oc2ccccc21 (stereo not given) | 72 to 74
18 | CCCCCCCCCCCCCCCCNS(=O)(=O)c1ccc(Cl)c([N+](=O)[O-])c1 | 91 to 93
19 | COc1ccc(-c2cc3c(Nc4cccc(Cl)c4)ncnc3[nH]2)cc1 | 294 to 295
20 | CSc1ccc(-c2nc(SC)c(C#N)c(=O)n2-c2ccc(Br)cc2)cc1 | 213 to 215
21 | CC(C)(C)C(O)C(=O)CCn1cncn1 (stereo not given) | 80 to 83
22 | CC1(C)CC(NS(C)(=O)=O)c2cc(OCc3ccccc3)ccc2O1 (stereo not given) | 162 to 165
23 | CNC(=O)c1ccnc(NC(=O)N2CCC3(CCc4cc(F)ccc4O3)CC2)c1 | 175 to 176
24 | CC(c1ccc(N(C)C)cc1)c1ccc(N(C)C)cc1 | 68

Row | Compound | melting point [°C]
25 | CC(=O)OCc1c(C)n(C[C@H]2C[C@@H]2C)c2c(OCc3ccc(F)cc3)nncc12 | 122 to 123
26 | Clc1nccc2cc(Br)ccc12 | 103 to 104
27 | CCn1cc(Cl)nc(S(=O)(=O)CC(=O)Nc2ccccc2)c1=O | 178 to 180
28 | CCn1nc(-c2ccc(OC)cc2)cc(C(=O)OC)c1=O | 76.5 to 77.6
29 | COc1cc2c(cc1Nc1ncc(C(F)(F)F)c(Nc3ccc(N4CCOCC4)cc3OC)n1)CCOC(=O)N2C | 232 to 234
30 | COC(=O)c1cc(S(=O)(=O)N(C)C)c(F)c(F)c1Nc1ccc(I)cc1Cl | 154 to 156
31 | CC(C)CC(=O)Nc1cccc(-c2ccnc3c(-c4cccc(CN(C)C)c4)cnn23)c1 | 179 to 182
32 | Cc1c(-c2ccc(O)cc2)n(Cc2ccc(OCCN3CCC(O)CC3)cc2)c2ccc(O)cc12 | 80 to 90
33 | CON=C(C1=Nc2ccc(Cl)cc2C(c2ccccc2F)=NC1)[N+](=O)[O-] | 130 to 133
34 | COc1ccc(-c2nc(-c3cccn3CC(=O)OC(C)C(C)C)sc2-c2ccc(OC)cc2)cc1 (stereo not given) | 88.5 to 91.5
35 | Cc1nc(C)c(C(C)(O)c2ccsc2)o1 (stereo not given) | 132 to 133
36 | CNc1nc(-c2cccc(NC(=O)c3ccnc(Cl)c3)c2)c2cc(OC)c(OC)cc2n1 | 151 to 153
37 | CCCCCCNC(=O)C#CBr | 64 to 64.3
38 | O=C(O)CCCC(=O)NCc1ccccc1 | 83 to 84
39 | C=CC(=O)OCCN(CCOC(=O)C=C)c1ccc(N=Nc2snc(C)c2C#N)c(NC(=O)C(C)C)c1 | 92 to 94
40 | CC(O)COc1c2ccccc2c(C=O)c2ccccc12 (stereo not given) | 84 to 86
41 | COc1ccc(S(=O)(=O)N2CCc3cccc(-c4cccnc4)c32)cc1 | 179 to 181
42 | O=C(CCCCCS(=O)(=O)Nc1ccccc1)NO | 97 to 98
43 | CCOP(=O)(/C=C/c1cn(-c2ccccc2)nc1OCc1ccc(OCc2nc(-c3ccc(C(=O)O)cc3)oc2C)c(OC)c1)OCC | 194 to 195
44 | Cc1ccc(S(=O)(=O)N2CCC(Sc3ccccc3)CC2)cc1 | 105 to 108
45 | CN1CCN2C(=O)c3ccccc3C12c1ccccc1 (stereo not given) | 120 to 122
46 | O=c1[nH]c2ncc(-c3ccc(-c4nc[nH]n4)cc3)nc2n1CCC1CCOCC1 | 263 to 266
47 | Cc1ccc2c(=O)nc(-c3cc(S(C)(=O)=O)cc(CCC(=O)OC(C)(C)C)n3)sc2c1 | 178
48 | COCOCC1Oc2c(OC)cccc2C1=O (stereo not given) | 71 to 72

Row | Compound | melting point [°C]
49 | CCOC(=O)c1cc(CC)sc1Nc1ccc([N+](=O)[O-])cc1N | 174 to 176
50 | COc1ccc(-c2cncn2-c2ccc(S(C)(=O)=O)cc2)c(Cl)n1 | 192 to 198
51 | O=C(NC1CCCCC1)c1ccccc1I | 148 to 149
52 | COc1cc2c(c3c1OC(C)(C)C3)C(c1cccc(N(CC(N)=O)S(C)(=O)=O)c1)=NC(C)(C)C2 | 190 to 191
53 | CC(C)(C)OC(=O)N1CCN(Cc2ccc(NC(=O)Oc3ccccc3)c(C(F)(F)F)c2)CC1 | 143 to 147
54 | Nc1c(F)cc(Cl)cc1C(O)(C#CC1CC1)C(F)(F)F (stereo not given) | 131 to 135
55 | O=C(Nc1ccc(CCCCC2(C(=O)NCC(F)(F)F)c3ccccc3-c3ccccc32)nc1)c1ccccc1 | 109 to 113
56 | OCc1nnc2n1-c1ccc(Cl)cc1C(c1ccccc1Cl)=NC2 | 236 to 239
57 | CC(C)(C)OC(=O)NCC12CN(c3cc4c(cc3F)c(=O)c(C(=O)O)cn4C3CC3)CC1CCO2 (stereo not given) | 235 to 237
58 | CCCc1c(S(=O)CCCOc2ccc(C(C)=O)c(OCCCC(=O)OCC)c2CCC)ccc(C(C)=O)c1O (stereo not given) | 74 to 76
59 | CC(=NOCCOc1ccc(CC2SC(=O)N(C(c3ccccc3)(c3ccccc3)c3ccccc3)C2=O)cc1)c1ccc(-c2ccccc2)nc1 (stereo not given) | 186 to 187
60 | NC1=NN(c2nc3ccccc3s2)CC1 | 232 to 235
61 | CC(=O)Nc1cccc(C(C)(C)O)c1CO | 138
62 | COC(=O)CCCC(=O)c1cc2c(c(S(=O)(=O)Cl)c1)OCC2 | 78 to 79
63 | O=C(Nc1ccc(Cl)cc1)NS(=O)(=O)c1ccc2c(c1)CCCC2 | 163 to 165
64 | COC(=O)c1cccc2nc(N3CCOCC3)n(Cc3ccc(-c4ccccc4-c4nnn[nH]4)cc3)c12 | 163 to 167
65 | CCOC(=O)c1cc(NCc2ccccc2)c(Nc2cccc(C)c2)c(S(N)(=O)=O)c1 | 169 to 170
66 | CCCCCCCCCC(=O)OC1CCC2(CC(=O)N(CCCCN3CCN(c4nsc5ccccc45)CC3)C(=O)C2)C1 (stereo not given) | 117 to 119
67 | O=S1(=O)c2cccc3cccc(c23)N1CC(Br)CN1CCN(c2ccc(F)cc2)CC1 (stereo not given) | 102
68 | COC(=O)COc1ccc(NC(=O)OCCO)cc1 | 85.5 to 87.5
69 | Cn1cc(C2=C(c3c4n(c5ccccc35)CC(CN)CC4)C(=O)NC2=O)c2ccccc21 (stereo not given) | 160 to 165
70 | COC(=O)CN(CC(=O)OC)c1cc(OCCCCCCCCCCCCOc2ccccc2)cc(OCCCOc2ccc(S(C)=O)cc2)c1 (stereo not given) | 47 to 49
71 | CCOC(=O)c1cn(CC(F)(F)F)c2c(C)cc(F)cc2c1=O | 154 to 158
72 | Nc1cc(C(=O)O)cc(S(N)(=O)=O)c1Sc1ccccc1 | 285

Row | Compound | melting point [°C]
73 | O=c1nc(N2CCN(c3ccc(Cl)cc3)CC2)sc2c([N+](=O)[O-])cc([N+](=O)[O-])cc12 | 178 to 180
74 | O=C(O)c1ccc(Cc2cc3cc(C(F)(F)F)ccc3n2S(=O)(=O)c2cccc(C3CC3)c2)cc1 | 147
75 | N#Cc1ccc2ccc(C(=O)O)cc2c1 | 279 to 283
76 | Cc1c(F)cccc1Cc1c(-c2ccccc2)c2ccccn2c1C(=O)N1CCN(C(=O)OC(C)(C)C)CC1 | 263
77 | Cc1ccccc1-c1ccc(C(=O)N2Cc3ccc(C(=O)NC(C)c4ccccc4)n3Cc3ccccc32)cc1C (stereo not given) | 118 to 124
78 | CCN1C(=O)C(C)(C)C(=O)N(C)c2cc(CN(CCn3ccc4oc(C)cc4c3=O)Cc3cnccn3)ccc21 | 129 to 131
79 | CC(C)Oc1ccc(CCCOc2cc(CCC(=O)O)n(-c3ccccc3)n2)c(Oc2ccc(Cl)cc2Cl)n1 | 60 to 62
80 | COC(=O)C1=C(C)NC(CO)=C(C(=O)OC)C1c1ccccc1[N+](=O)[O-] (stereo not given) | 164 to 165
81 | COc1cc(-c2nn(C)c(C(F)(F)F)c2Cl)c(F)cc1Cl | 70 to 71
82 | COc1cc(N)c(Cl)cc1C(=O)NCC1CCN(CCCCCC(=O)c2cc3ccccc3s2)CC1 | 157 to 159
83 | O=C(O)Cc1c(C(=O)c2ccncc2)[nH]c2cc(Cl)ccc12 | 256 to 257
84 | COc1nc(Nc2ccc(Cl)cc2[N+](=O)[O-])nc(OC)n1 | 206 to 208
85 | CC(N)CC(=O)N(c1ccc(Nc2ccccc2)cc1)C(C)C (stereo not given) | 145 to 151
86 | CN(CCOc1ccc(CC2SC(=O)NC2=O)cc1)C(=O)Nc1ccccc1 (stereo not given) | 88 to 90
87 | COc1ccc2sc(C(N)=O)c(SCc3ccccc3)c2c1 | 151 to 153
88 | COC(=N[N+](=O)[O-])NCc1ccc(Cl)nc1 | 112 to 113
89 | O=C(O)CC1CCCc2c1n(Cc1ccc(Cl)cc1Cl)c1c(F)cc(F)cc21 (stereo not given) | 160 to 161
90 | CC(C)(C)OC(=O)N1CC=C(c2ccc3oc(-c4ccc(S(C)(=O)=O)cc4F)nc3c2)CC1 | 149 to 151
91 | CCCCC(=O)Nc1c(C)c(C)c2c(c1C)C(c1ccc(C(C)C)cc1)CO2 (stereo not given) | 128 to 129
92 | O=C(c1ccccc1)N1CCc2[nH]c3cccc(-c4cc(F)cc(F)c4)c3c2CC1 | 198 to 201
93 | CCCCc1ccc(NS(=O)(=O)c2ccc(N3CCNC3=O)cc2)cc1 | 203 to 205
94 | NC(=O)c1cc2c(Oc3ccc(C(=O)NCCN4CCOCC4)cc3)cncc2s1 | 214 to 216
95 | O=C1c2cc(O)ccc2OCC1Cc1nccs1 (stereo not given) | 150 to 152
